Reference: PMC10749895, “ppGpp accumulation reduces the expression of the global nitrogen homeostasis-modulating NtcA regulon by affecting 2-oxoglutarate levels” (Communications Biology, 2023)

Tests used:
[1] = biological target: T1, Synpcc7942_0903 (aconitase, ACN) (Synechococcus elongatus, UniProt Q31PT6); assay: aconitase activity, cis-aconitate formation at […] nm; assay type: biochemical; conditions: 1 mM citrate, 100 mM potassium phosphate pH 8.0, 30 °C, anaerobic
T1 construct: full-length gene in pET28a (NdeI/HindIII), N-terminal His6-tag, E. coli BL21-CodonPlus(DE3)-RIL, Ni column, purified anaerobically

[2] = biological target: T1, Synpcc7942_0903 (aconitase, ACN); assay: as above; assay type: biochemical; conditions: 0.25-10 µM ppGpp, 10 min preincubation; 1 mM citrate, 100 mM potassium phosphate pH 8.0, 30 °C, anaerobic; inhibitor

| Compound | aconitase activity, cis-aconitate formation at 240 nm [1] | relative activity (% of activity without ppGpp) at maximum inhibition [2] |
| --- | --- | --- |
| O=C(O)CC(O)(CC(=O)O)C(=O)O [citrate] | monitoring the formation of cis-aconitate in a reaction mixture containing | – |
| Nc1nc2c(ncn2[C@@H]2O[C@H](COP(=O)(O)OP(=O)(O)O)[C@@H](OP(=O)(O)OP(=O)(O)O)[C@H]2O)c(=O)[nH]1 [ppGpp] | – | ~ 63 |
